In US7563774B2, “Combination of FBPase inhibitors and antidiabetic agents useful for the treatment of diabetes” (Metabasis Therapeutics, Inc., priority 2000, dated 2009):

Experiments:
[1] = tested on: Db/db or ob/ob mice; test: Acute combination treatment of a glucose-6-phosphatase inhibitor and an FBPase inhibitor in db/db or ob/ob mice (Example GG); format: in vivo, mouse; settings: 0.5 to 300 mg/kg p.o.
Description: Db/db or ob/ob mice are purchased at 5 weeks of age from Jackson Laboratories (Bar Harbor, Me.). The mice are maintained under standard vivarium conditions (24-26° C., 12-hour light cycle, 12-hour dark cycle) and receive standard chow and water ad libitum. At more than 10 weeks of age, animals are divided into 4 groups (n=5 to 7/group). […] Food is either withheld or made available after treatment. Blood glucose levels in tail vein samples are measured by means of standard manual or automated methods.

[2] = tested on: Zucker Diabetic Fatty rats; test: Acute combination treatment of an insulin secretagogue and Compound J in the ZDF rat (Example X); format: in vivo
Description: Experimental Protocol: Zucker Diabetic Fatty rats (9.5 weeks of age) were fasted for 5 hours starting at 8 am. The animals were then divided into 4 treatments groups with statistically similar baseline blood glucose levels. Test compounds were administered by oral gavage. The treatments were as shown below:
One hour after saline or drug administration, all animals received a simulated meal in the form of an oral bolus of glucose (1 g/kg). Blood glucose was then monitored at regular time intervals for 3 hours. Test compounds were prepared as suspensions in 0.1% carboxymethylcellulose. Blood samples were obtained by nicking of a tail vein. Blood glucose was measured by means of a HemoCue glucose analyzer according to the manufacturer's instructions (HemoCue Inc., Mission Viejo, Calif.). Results are expressed as the mean ± standard error of the mean for all values.

[3] = tested on: C57BL/KsJ db/db mice; test: Acute combination treatment of a biguanide and an FBPase inhibitor in db/db mice (Example DD); format: in vivo, mouse
Description: Male C57BL/KsJ db/db mice were purchased at 5 weeks of age from Clea Japan, Inc. (Tokyo, Japan). The mice were maintained under standard vivarium conditions (24-26° C., 12-hour light cycle, 12-hour dark cycle) and received standard chow and water ad libitum. […] The treatment groups were control, compound J , metformin, and the combination of compound J and metformin. […] Food was removed after treatment. Blood glucose levels in tail vein samples were measured by means of a Glucoloader-F, an automatic glucose analyzer, (A&T Co., Ltd., Tokyo, Japan).

[4] = tested on: streptozotocin-induced diabetic rat; test: Chronic combination treatment of a fatty acid oxidation inhibitor and an FBPase inhibitor in the streptozotocin-induced diabetic rat (Example JJ); format: in vivo; settings: etomoxir 3-300 mg/kg s.c., Compound J 0.2% w/w food admixture, 2-6 weeks
Description: Male Sprague-Dawley rats (Charles Rivers Laboratories) weighing approximately 120 g at the beginning of the study are housed under standard vivarium conditions and fed standard chow (Purina 5001). Rats are rendered diabetic by injection of 55 mg/kg body weight of streptozotocin (STZ) in citrate buffer, pH 4.7. […] Drug treatment is continued for 2-6 weeks. Blood glucose levels are monitored at regular intervals during the treatment period. At the end of the study, rats are anesthetized and instrumented with jugular vein and carotid artery catheters. Hepatic glucose production is measured using a primed constant infusion of (^3H)-6-glucose. Blood samples are taken after two hours, and the specific activity of glucose measured by […]. Hepatic glucose production rater are calculated by standard methods.

[5] = tested on: streptozotocin diabetic Sprague Dawley rats; test: Acute combination treatment of an FBPase inhibitor and an amylin agonist in streptozotocin diabetic rats (Example HH); format: in vivo, rat; settings: pramlintide 10 micrograms i.v., Compound J 300 mg/kg p.o.
Description: Animals are then gavaged with 1 mL 50% glucose, and allowed ad libitum access to food. Blood glucose is collected from the tail vein at 0, 30, 60, 120, 180, and 240 minutes following glucose administration.

[6] = tested on: Zucker Diabetic Fatty (ZDF) rat; test: Glucose lowering in the ZDF rat (Example W); format: in vivo; settings: for Blood Glucose: 0.4% food admixture
From the text: The Zucker Diabetic Fatty (ZDF) rat is widely used as a model for human NIDDM as the progression of the disease in these rodents is similar to that described for human […] patients. […] Clark J B, Palmer C J (1982) Diabetes 30: 126A Terrettaz J, Jeanrenaud B (1983) Endocrinology 112: 1346-1351.

[7] = tested on: Sprague Dawley rats; test: Oral glucose lowering in overnight fasted Sprague Dawley rats (Example G); format: in vivo, rat; settings: […]
Description: Oral efficacy of Compound J was assessed in overnight fasted Sprague Dawley rats. […] At 1.5 h or 4 h post drug administration, a blood sample was taken from the tail vein and analyzed for blood glucose by means of an automated glucose analyzer (HemoCue, HemoCue Inc, Mission Viejo, Calif.).

[8] = tested on: ZDF rats; test: Chronic combination treatment of an insulin secretagogue and an FBPase inhibitor in the ZDF rat (Example Y); format: in vivo; settings: maximal doses, 2 to 12 weeks
From the text: Male ZDF rats are purchased at 7 weeks of age from Genetics Models Inc. (Indianapolis, Ind.). […] At 8 weeks of age, animals are divided into 4 treatment groups (n=8/group). The treatments are control, Compound J, glyburide, and the combination of Compound J and glyburide. […] Other parameters measured by standard assays include: lactate, glycerol, alanine, triglycerides, free fatty acids, ketone bodies, hepatic and muscle glycogen, cholesterol, VLDL, HDL, hemoglobin Alc, body weight, food and water intake, as well as other measures of carbohydrate, lipid, and protein metabolism. […] Differences between groups are evaluated ANOVA using an appropriate post hoc test. Results are considered significant with p<0.05.

[9] = tested on: C57BL/KsJ db/db mice; test: Chronic combination treatment of insulin and Compound J in db/db mice (Example BB); format: in vivo, mouse; settings: combination group versus insulin alone
Description: Male C57BL/KsJ db/db mice were purchased at 5 weeks of age from Clea Japan, Inc. (Tokyo, Japan). […] At 19 weeks of age, animals were divided into 2 groups (n=6/group). […] Blood glucose levels in tail vein samples were measured by means of a Glucoloader-F, an automatic glucose analyzer, (A&T Co., Ltd., Tokyo, Japan).

[10] = tested on: Db/db or ob/ob mice; test: Acute combination treatment of a glycogen phosphorylase inhibitor and an FBPase inhibitor in db/db or ob/ob mice (Example FF); format: in vivo, mouse; settings: 0.5 to 300 mg/kg p.o.
Description: Db/db or ob/ob mice are purchased at 5 weeks of age from Jackson Laboratories (Bar Harbor, Me.). The mice are maintained under standard vivarium conditions (24-26° C., 12-hour light cycle, 12-hour dark cycle) and receive standard chow and water ad libitum. At more than 10 weeks of age, animals are divided into 4 groups (n=5 to 7/group). […] Food is made available after treatment. Blood glucose levels in tail vein samples are measured by means of standard manual or automated methods.

[11] = glyburide 100 mg/kg, Compound J 300 mg/kg p.o.

CCOC(=O)[C@H](C)NP(=O)(N[C@@H](C)C(=O)OCC)c1ccc(-c2nc(N)sc2CC(C)C)o1 [Compound J, 2-Amino-5-isobutyl-4-{2-[5-(N,N′-bis((S)-1-ethoxycarbonyl)ethyl)phosphonamido]furanyl}thiazole]
blood glucose lowering [1]: significantly lower blood glucose relative to control values
blood glucose after oral glucose load (FIG. 1) [2, 11]: lowering blood glucose to below baseline levels
blood lactate levels (FIG. 2) [2, 11]: increase in blood lactate levels
AUC glucose ([2]; initial 4 hours post drug, glyburide 100 mg/kg, Compound J 300 mg/kg p.o., oral glucose 1 g/kg): 1121 ± 82 mg·h/dL
maximally efficacious dose ([2]; pilot studies, ZDF rat): 300 mg/kg
Plasma Glucose, % of pretreatment value ([3]; after 2 hour): (70.2 +/− 14.6) %
Plasma Glucose ([3]; after 2 hour, Compound J and/or metformin 150 mg/kg p.o.): 448.6 ± 42.5 mg/dL
Plasma Glucose ([3]; after 4 hour): 376.7 ± 39.9 mg/dL
Plasma Glucose, % of pretreatment value ([3]; after 4 hour): (72.4 +/− 5.0) %
Plasma Glucose ([3]; after 6 hour): 357.7 ± 40.4 mg/dL
Plasma Glucose, % of pretreatment value ([3]; after 6 hour): (68.7 +/− 5.5) %
Plasma Glucose ([3]; after 8 hour): 386.5 ± 43.1 mg/dL
Plasma Glucose, % of pretreatment value ([3]; after 8 hour): (74.2 +/− 5.8) %
Plasma Glucose ([3]; before (0 hour)): 514.3 ± 23.0 mg/dL
Plasma Glucose, % of pretreatment value ([3]; before (0 hour)): (100.0 +/− 0.0) %
blood glucose lowering ([3]; db/db mice, acute): lowered blood glucose significantly relative to controls
Blood Glucose [4]: lowered significantly
postprandial glucose excursion [5]: attenuated the postprandial glucose excursion
glycemic control [6]: significantly improved glycemic control
Blood Glucose ([6]; Day 0): 674 ± 20 mg/dL
Blood Glucose ([6]; Day 21): 452 ± 40 mg/dL
Glucose Lowering, % ([7]; Compound J 10 mg/kg p.o.): 66%
Glucose Lowering, % ([7]; Compound J 30 mg/kg p.o.): 85%
glycemic control [8]: more effective than glyburide as pancreatic function declines
decrease of the insulin dose required to reduce plasma glucose to target levels [9]: ~40%
blood glucose lowering [10]: significantly lower blood glucose relative to control values
